Reference: ChEMBL document CHEMBL1201862, “PubChem BioAssay data set” (2004)
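Step 1: Grow cells in 96-well plates. Step 2: Expose to compound for 48 hours at 5 concentrations. Step 3: Interpolate endpoints linearly; if unreached, use highest concentration. Abbreviation: GI50, concentration required for 50% inhibition of growth.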 The source made the active and inactive calls. No stated cut-off is given here; in the data, active = GI50 up to about 1.1 µM and inactive = higher.

What was measured:
Assay in all cases: DTP human tumour cell line panel, 48 h
MOLT-4 = test system: MOLT-4
SN12C = test system: SN12C
SK-OV-3 = test system: SK-OV-3
HT-29 = test system: HT-29
LOX IMVI = test system: LOX IMVI
MDA-MB-435 = test system: MDA-MB-435
RPMI-8226 = test system: RPMI-8226
CCRF-CEM = test system: CCRF-CEM
CAKI-1 = test system: CAKI-1
786-0 = test system: 786-0
SR = test system: SR
HCT-15 = test system: HCT-15
HCC 2998 = test system: HCC 2998
SF-295 = test system: SF-295
NCI/ADR-RES = test system: NCI/ADR-RES
SF-539 = test system: SF-539
K562 = test system: K562
ACHN = test system: ACHN
HL-60 = test system: HL-60
A498 = test system: A498

| SMILES | GI50 (MOLT-4) | GI50 (SN12C) | GI50 (SK-OV-3) | GI50 (HT-29) | GI50 (LOX IMVI) | GI50 (MDA-MB-435) | GI50 (RPMI-8226) | GI50 (CCRF-CEM) | GI50 (CAKI-1) | GI50 (786-0) | GI50 (SR) | GI50 (HCT-15) | GI50 (HCC 2998) | GI50 (SF-295) | GI50 (NCI/ADR-RES) | GI50 (SF-539) | GI50 (K562) | GI50 (ACHN) | GI50 (HL-60) | GI50 (A498) |
| --- | --- | --- | --- | --- | --- | --- | --- | --- | --- | --- | --- | --- | --- | --- | --- | --- | --- | --- | --- | --- |
| COc1ccc2c(c1)CCC1=C/C(=N\NC(N)=O)CCC12C (configuration not stated) | > 10 µM (inactive) | > 10 µM (inactive) | > 10 µM (inactive) | > 10 µM (inactive) | > 10 µM (inactive) | 5.24 µM (inactive) | > 10 µM (inactive) | > 10 µM (inactive) | > 10 µM (inactive) | > 10 µM (inactive) | > 10 µM (inactive) | > 10 µM | > 10 µM (inactive) | > 10 µM (inactive) | > 10 µM (inactive) | > 10 µM (inactive) | > 10 µM (inactive) | > 10 µM (inactive) | 9.62 µM (inactive) |  |
| CCCCc1c(OC)cc(O)c2c1C(=O)c1[nH]c(C(=O)O)c(O)c(=O)c1C2=O | 19.8 µM (inactive) | 6.08 µM (inactive) | 4.35 µM (inactive) | > 100 µM (inactive) | 4.01 µM (inactive) | 5.56 µM (inactive) | > 100 µM (inactive) | 42.1 µM (inactive) | 13.2 µM (inactive) | 1.62 µM (inactive) | 6.93 µM (inactive) | 23.8 µM | 19.8 µM (inactive) | 22.8 µM (inactive) | 4.18 µM (inactive) | 0.499 µM (active) | > 100 µM (inactive) | 2.27 µM (inactive) | 1.56 µM (inactive) |  |
| NC(=O)NC(=O)c1cccc(CNc2ccc(C(=O)N[C@@H](CCC(=O)O)C(=O)O)cc2)n1 | > 100 µM (inactive) | > 100 µM (inactive) | > 100 µM (inactive) | > 100 µM (inactive) | > 100 µM (inactive) | > 100 µM (inactive) | > 100 µM (inactive) |  | > 100 µM (inactive) | > 100 µM (inactive) | > 100 µM (inactive) | > 100 µM | > 100 µM (inactive) | > 100 µM (inactive) | > 100 µM (inactive) | > 100 µM (inactive) | > 100 µM (inactive) | > 100 µM (inactive) | > 100 µM (inactive) |  |
| CCN(CCCl)c1cc(CN(C)C)cc(NC(=O)c2ccc(C(=O)Nc3cc(CN(C)C)cc(N(CC)CCCl)c3)cc2)c1 | 0.0183 µM (active) | 0.0502 µM (active) | 0.226 µM (active) | 0.0951 µM (active) | 0.0826 µM (active) | 0.162 µM (active) | 0.0885 µM (active) | 0.0156 µM (active) | 0.272 µM (active) | 0.069 µM (active) | 0.0228 µM (active) | 5.69 µM | 0.0762 µM (active) | 0.182 µM (active) | 42 µM (inactive) | 0.0762 µM (active) | 0.0733 µM (active) | 0.162 µM (active) | < 0.01 µM (active) |  |
| COc1ccc(C(=O)/C=C/c2ccc(OCC#N)cc2)cc1OC | 10.3 µM (inactive) | 16.4 µM (inactive) | 26.5 µM (inactive) | 22.3 µM (inactive) |  | 17.5 µM (inactive) |  | 3.21 µM (inactive) | 17.4 µM (inactive) | 19.9 µM (inactive) | 11.8 µM (inactive) | 20 µM | 18.2 µM (inactive) | > 10 µM (inactive) | 18.5 µM (inactive) | 17.9 µM (inactive) | 5.52 µM (inactive) | 30.1 µM (inactive) |  | > 10 µM (inactive) |
| Cc1ccnc(NS(=O)(=O)c2ccc(NC(=O)c3ccc4nc5ccccc5c(Nc5ccc(S(=O)(=O)Nc6nccc(C)n6)cc5)c4c3)cc2)n1 | 39.9 µM (inactive) | 60.3 µM (inactive) | > 100 µM (inactive) | > 100 µM (inactive) | 45.3 µM (inactive) | 66.1 µM (inactive) | 57.8 µM (inactive) | 42.3 µM (inactive) | > 100 µM (inactive) | > 100 µM (inactive) | 21.9 µM (inactive) | > 100 µM | 37.2 µM (inactive) | > 100 µM (inactive) | > 100 µM (inactive) | 52 µM (inactive) | 41.4 µM (inactive) | > 100 µM (inactive) | 94.4 µM (inactive) |  |
| CCN(CC)c1ccc2cc(C(=O)Nc3cccc4ccccc34)c(=N)oc2c1 |  | > 100 µM (inactive) | > 100 µM (inactive) | > 100 µM (inactive) | > 100 µM (inactive) | 91.8 µM (inactive) | > 100 µM (inactive) | > 100 µM (inactive) | > 100 µM (inactive) | 16.8 µM (inactive) | 7.96 µM (inactive) | > 100 µM | > 100 µM (inactive) | 45.5 µM (inactive) | > 100 µM (inactive) | 72.9 µM (inactive) | > 100 µM (inactive) | > 100 µM (inactive) | 7.98 µM (inactive) |  |
| COc1cc(/C=N/N=C2NCCN2)ccc1O | > 100 µM (inactive) | > 100 µM (inactive) | > 100 µM (inactive) | > 100 µM (inactive) | > 100 µM (inactive) | > 100 µM (inactive) | > 100 µM (inactive) | > 100 µM (inactive) |  | > 100 µM (inactive) | > 100 µM (inactive) | > 100 µM | > 100 µM (inactive) | 68.5 µM (inactive) | > 100 µM (inactive) | > 100 µM (inactive) | > 100 µM (inactive) | > 100 µM (inactive) | > 100 µM (inactive) |  |
